# Source: patent publication EP1077981B1, “NOVEL CEPHALOSPORIN COMPOUNDS, PROCESSES FOR PREPARATION THEREOF AND ANTIMICROBIAL COMPOSITIONS CONTAINING THE SAME” (LG CHEMICAL LIMITED, priority 1998, dated 1999)
# Columns and labels:
# Assay in all cases: MIC against standard strains (agar dilution)
# Format in all cases: cell-based
# Staphylococcus aureus 77 = details: Staphylococcus aureus 77; Mueller-Hinton agar, 20 hours at 37°C; read-out: MIC
# Summary of the method: (§1)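 Read-out is the lowest compound concentration preventing visible growth on Mueller-Hinton agar. Inocula of 10^7 cfu/mℓ were applied to plates containing 2-fold dilutions, then incubated 20 hours at 37°C.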
# [1] = system: Salmonella typhimurium 14028; details: Salmonella enterica; Salmonella typhimurium 14028; Mueller-Hinton agar, 20 hours at 37°C; read-out: MIC
# Summary of the method: as §1
# [2] = system: Staphylococcus aureus giorgio; details: Staphylococcus aureus giorgio; Mueller-Hinton agar, 20 hours at 37°C; read-out: MIC
# Summary of the method: as §1
# Escherichia coli 851E = details: Escherichia coli, 851E, 20 h
# Summary of the method: as §1
# [3] = system: Staphylococcus aureus 241; details: Staphylococcus aureus 241; Mueller-Hinton agar, 20 hours at 37°C; read-out: MIC
# Summary of the method: as §1
# [4] = system: Enterococcus faecalis 29212; details: Enterococcus faecalis 29212; Mueller-Hinton agar, 20 hours at 37°C; read-out: MIC
# Summary of the method: as §1
# [5] = system: Pseudomonas aeruginosa 6065Y; details: Pseudomonas aeruginosa 6065Y; Mueller-Hinton agar, 20 hours at 37°C; read-out: MIC
# Summary of the method: as §1
# [6] = system: Citrobacter freundii 8090; details: Citrobacter freundii 8090; Mueller-Hinton agar, 20 hours at 37°C; read-out: MIC
# Summary of the method: as §1
# [7] = system: Enterobacter cloacae IND+VE 1194E; details: Enterobacter cloacae IND+VE 1194E; Mueller-Hinton agar, 20 hours at 37°C; read-out: MIC
# Summary of the method: as §1
# [8] = system: Moraxella catarrhalis C2431; details: Moraxella catarrhalis C2431; Mueller-Hinton agar, 20 hours at 37°C; read-out: MIC
# Summary of the method: as §1
smiles,measurement,setting,value
"CO/N=C(\C(=O)NC1C(=O)N2C(C(=O)O)=C(Sc3cc(N)nc(N)n3)CSC12)c1csc(N)n1 (stereo not shown) [Compound No. 25, 7-[(Z)-2-(2-amino-thiazol-4-yl)-2-methoxyimino-acetylamino]-3-(2,6-diamino-pyrimidin-4-ylsulfanyl)-8-oxo-5-thia-1-azabicyclo[4,2,0]oct-2-ene-2-carboxylic acid]",MIC,Staphylococcus aureus 77,4 µg/mL
same,MIC,[1],0.25 µg/mL
same,MIC,[2],0.5 µg/mL
same,MIC,Escherichia coli 851E,0.063 µg/mL
same,MIC,[3],8 µg/mL
same,MIC,[4],> 64 µg/mL
same,MIC,[5],64 µg/mL
same,MIC,[6],1 µg/mL
same,MIC,[7],> 64 µg/mL
same,MIC,[8],≤ 0.008 µg/mL
